Literature values in patent publication US20100323998A1, “TOPICAL COMPOSITION CONTAINING THE COMBINATION OF MUPIROCIN AND BECLOMETHASONE” (Glenmark Pharmaceuticals Ltd., priority 2007, published 2010).

System: Gram-positive and Gram-negative bacteria
Settings: in vitro

SMILES: C/C(=C\C(=O)OCCCCCCCCC(=O)O)C[C@@H]1OCC(C[C@@H]2O[C@H]2[C@@H](C)[C@H](C)O)[C@@H](O)[C@H]1O (stereo partly drawn) [Mupirocin, (E)-(2S,3R,4R,5S)-5-[(2S,3S,4S,5S)-2,3-Epoxy-5-hydroxy-4-methylhexyl]tetrahydro-3,4-dihydroxy-β-methyl-2H-pyran-2-crotonic acid, ester with 9-hydroxynonanoic acid]
- Growth of Gram-positive and Gram-negative bacteria: inhibits the growth
